Experimental data: patent US9597408B2, “Peptide-mediated non-covalent delivery of active agents across the blood-brain barrier” (Mayo Foundation for Medical Education and Research, priority 2009, dated 2017)
Where no end group is shown, it is not given here.

Columns and labels:
[1] = system: BBB; parameters: species or system mice; conditions: mouse, in vivo
Description: FIG. 8 illustrates the testing mutant ApoE peptides for their potential as non-covalent transporters of proteins across the BBB. A—no peptide, no β-gal; B—K16ApoE (SEQ ID NO: 22)+β-gal; C—K16L3N7 (SEQ ID NO: 126)+β-gal; D—K16L3L20 (SEQ ID NO: 127)+β-gal; E—K16N7L20 (SEQ ID NO: 128)+β-gal.
β-galactosidase was mixed with equal amounts of various peptide transporters and injected into mice. Slides were prepared using 25 μm sections of the mice brains one hour after injection followed by development of enzyme staining (FIG. 8).

[2] = system: BBB; parameters: species or system mice; conditions: mouse, in vivo; remark: listed apart in the source
Description: The delivery of radiolabeled IgG across the BBB in different brain regions in mice with and without the peptide K16ApoE (SEQ ID NO:22) was evaluated. In addition, the integrity of the BBB after delivery of IgG with K16ApoE (SEQ ID NO: 22) was examined. […] of ^125I-IgG were mixed with varying amounts of the peptide K16ApoE (SEQ ID NO: 22) (0-55 μmol), and the mixture injected intravenously into the mice. ^131I-IgG not complexed with the peptide was injected into the same animals at 59 minutes and allowed to circulate for 1 minute subsequent to the initial femoral vein injection of ^125I-IgG+K16ApoE (SEQ ID NO: 22). Uptake of ^125I-IgG and ^131I-IgG were measured in different areas of the brain after 60 minutes.
PS values reflect the amount of ^125I-IgG that has crossed the BBB, whereas Vp values indicate the amount of ^131I-IgG at the BBB but which has not crossed the BBB.

[3] = system: brain; parameters: species or system mice; conditions: mouse, in vivo
Description: FIG. 1 is a series of images illustrating the differences between delivery of Alexa-IgG complexed to K16ApoE (SEQ ID NO: 22) into brain and uncomplexed Alexa-IgG.
In this experiment, AlexaIgG488 was injected into mice with or without mixing with K16ApoE peptide (SEQ ID NO:22). Brain sections were made 1 hour after delivery.

[4] = system: brain; experiment: β-galactosidase delivery in brain, enzyme activity staining of brain slices; type: in vivo
Description: Required amount of the peptide and protein were mixed in a final volume of 300 μL PBS (phosphate buffered saline), and incubated at room temperature for 60 minutes. The mixture was vortexed for a few seconds, every fifteen minutes during the incubation period.
The mixture was injected intravenously as a bolus into the lumen of the femoral vein. This was accomplished using a heat pulled PE50 catheter. At the conclusion of the experiment, the mouse was euthanized with a lethal dose of sodium pentobarbital. Each mouse was perfused with 10 mL PBS. This perfusion was accomplished through the standard trans cardial method. The brain was removed from the skull and positioned to make an initial coronal slice at −2.0 mm bregma. Subsequently, 25 μm coronal sections were cut on a cryostat and placed on charged slides for staining of β-galactosidase activity.
Evaluation of β-galactosidase enzymatic activity was accomplished by an initial 15 minute fixation of the brain sections in 0.25% glutaraldehyde. The slides were washed with 3 changes of PBS for 5 minutes each and then rinsed in distilled water for 5 minutes. The brain sections were incubated in X-Gal (0.2%) working solution, pH 7.38, for 18 hours at 37° C. in covered containers. Following this incubation the sections were dehydrated and coverslips were applied.
To evaluate the potential of K16ApoE (SEQ ID NO: 22) for delivering a protein across the BBB, the enzyme β-galactosidase was injected in mice with or without prior mixing with K16ApoE (SEQ ID NO: 22) (at a protein to peptide molar ratio of 1:70). The experiment was repeated more than a dozen times. […] It is speculated that either X-gal or 5-bromo-4-chloroindole or both somehow leach out of this region faster than other regions of the brain resulting to a faint signal for β-galactosidase activity.

[5] = system: mouse brain; experiment: microSPECT imaging of delivery of radioiodinated human IgG and IgM; type: in vivo
Description: Micro SPECT/CT experiments were conducted on a Gamma Medica X SPECT System (GE Healthcare). Human IgG (Sigma) and IgM (Sigma) were labeled to a high specific activity using the Chloramine-T method. […] Immediately subsequent to the intravenous bolus injection, the mice were imaged every hour for a total of 6 hours. At the completion of the 6 hour time point, each mouse was euthanized and the systemic blood supply was transcardially perfused with 10 mL phosphate buffered saline, and imaged after 30 minutes.
Since many potentially therapeutic proteins against brain-associated disorders are immunoglobulins, delivery of IgG and IgM through K16ApoE (SEQ ID NO: 22) in mouse brain was evaluated by micro-single photon emission computed tomography (microSPECT) imaging. For this, radioiodinated human IgG (Sigma, product # I 4506) and human IgM (Sigma, product # I 8260) were mixed with K16ApoE (SEQ ID NO: 22) and injected intravenously. Anesthetized animals were then subjected to imaging for 6 hours at 1 hour interval. Cardiac perfusion was then performed, after which final imaging was done at 30 minutes post-perfusion. Results from these experiments provide a number of indications (FIG. 4): First, it appears that peak delivery of both IgG and IgM into brain happens around 2 hours post-injection of the peptide-protein mix, after which uptake of the proteins in the brain remains relatively unchanged up to 6 hours (maximum time point tested). Second, cardiac perfusion appears to remove most of the radioactive protein in the vasculature, concomitantly increasing the difference between apparent brain-uptake of the protein with and without the carrier peptide (˜5-fold).

[6] = system: BBB; parameters: species or system mice; conditions: mouse, in vivo; remark: listed apart in the source
Description: Each mouse (represented by A through G) received an injection of K16ApoE (SEQ ID NO: 22), followed by injection of β-galactosidase at the indicated times. Brain slices were made 4 hours after β-galactosidase injection and were followed by staining for activity of the enzyme. A—β-galactosidase was injected 1 minute after K16ApoE (SEQ ID NO: 22) injection. B—β-galactosidase was injected 5 minutes after K16ApoE (SEQ ID NO: 22) injection. C—β-galactosidase was injected 10 minutes after K16ApoE (SEQ ID NO: 22) injection. D—β-galactosidase was injected 30 minutes after K16ApoE (SEQ ID NO: 22) injection. E—β-galactosidase was injected 1 hour after K16ApoE (SEQ ID NO: 22) injection. F—β-galactosidase was injected 2 hours after K16ApoE (SEQ ID NO: 22) injection. G—β-galactosidase was injected 4 hours after K16ApoE (SEQ ID NO: 22) injection. H—positive control (β-galactosidase mixed with K16ApoE (SEQ ID NO: 22) was injected, brain slices were made 4 hours after the injection and proceeded for staining for enzyme activity).
A transporter that efficiently carries a protein in the brain should not do so by impairing the integrity of the BBB. To evaluate if K16ApoE (SEQ ID NO: 22) impairs the integrity of the BBB, the peptide was first injected intravenously, then injected β-galactosidase at different time intervals. The control mice received the enzyme mixed with the peptide. […]

[7] = system: BBB; experiment: Necessity of covalent linking of K16 and ApoE moieties: β-galactosidase staining of brain sections; type: in vivo, mice; conditions: β-galactosidase mixed with the peptide(s); FIG. 7
Description: Delivery of β-galactosidase in brain with K16 peptide (SEQ ID NO: 4) alone (A), with ApoE peptide only (B), with K16 peptide (SEQ ID NO: 4)+ApoE peptide (C), and with K16APoE peptide (SEQ ID NO: 22) (D).
The necessity of covalent linking of the K16 (SEQ ID NO: 4) and ApoE (SEQ ID NO: 13) peptide moieties was evaluated for non-covalent transport of a protein across the BBB. For this, β-galactosidase was mixed with either the ApoE peptide, the peptide K16 (SEQ ID NO: 4), ApoE plus K16 (SEQ ID NO: 4) or with K16ApoE (SEQ ID NO: 22), and injected in mice.

Substance: KKKKKKKKKKKKKKKKLRLRLASHLRKLRKRLLRDL [mutant B, KKKK KKKK KKKK KKKK LRLR LASH LRKL RKRL LRDL]
- transport of β-galactosidase compared with wild-type ApoE blood-brain barrier agent [1]: at least as well as wild-type or better

Substance: KKKKKKKKKKKKKKKKLRVRLASHLRKLRKRLLRDA [K16ApoE, KKKKKKKKKKKKKKKKLRVRLASHLRKLRKRLLRDA]
- Vp values in all the brain regions examined (in words) [2]: virtually unchanged
- damage of the BBB due to prior exposure to the peptide [2]: not damaged
- contrast and enhancement of brain structures compared to uncomplexed AlexaIgG488 [3]: significantly brighter contrast and enhancement of brain structures
- areas of the brain reached by the delivered β-galactosidase ([4]; mouse, in vivo): virtually every area of the brain
- β-galactosidase activity in brain ([4]; mouse, in vivo): intense β-galactosidase activity
- share of the injected immunoglobulins transported into the brain ([5]; IgG and IgM, under the experimental condition): about 1%
- difference between brain-uptake of the protein with and without the carrier peptide ([5]; IgG and IgM, after cardiac perfusion): ~5 fold
- time of peak delivery of IgG and IgM into brain ([5]; post-injection of peptide-protein mix, 70-fold molar excess of peptide, FIG. 4): around 2 hours
- effect of the peptide by itself on the BBB [6]: did not seem to affect the BBB
- time until binding of injected peptide to proteins and cells in the circulation is virtually complete ([6]; iv): ≤ 10 min

Substance: β-galactosidase: Bacterial β-galactosidase purchased from Calbiochem, enzyme injected alone [reference compound]
- β-galactosidase activity in brain ([4]; protein to peptide molar ratio 1:70 or enzyme alone, slices 6 hours after injection, FIG. 3A): no activity

Substance: KKKKKKKKKKKKKKKKLRVRLANHLRKLRKRLLRDL [mutant C, KKKK KKKK KKKK KKKK LRVR LANH LRKL RKRL LRDL]
- transport of β-galactosidase compared with wild-type ApoE blood-brain barrier agent [1]: at least as well as wild-type or better

Substance: KKKKKKKKKKKKKKKKLRLRLANHLRKLRKRLLRDA [mutant A, KKKK KKKK KKKK KKKK LRLR LANH LRKL RKRL LRDA]
- transport of β-galactosidase compared with wild-type ApoE blood-brain barrier agent [1]: worse than the wild-type

Substance: KKKKKKKKKKKKKKKK [K16, KKKKKKKKKKKKKKKK]
- β-galactosidase staining in brain sections [7]: β-galactosidase staining only in slides from mice receiving β-galactosidase mixed with K16ApoE
